Results taken from PubChem BioAssay (NCI).
Values joined by “and” are separate entries in the source; they are usually repeats but may differ in a detail not shown here. Equal entries are not always repeated.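 These data come from cells grown in 96-well plates and exposed to compound for 48 hours at five concentrations. Abbreviation: GI50, concentration required for 50% inhibition of growth. Definition used: TGI = concentration required for complete inhibition of growth.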

What was measured:
Test in all cases: inhibition of tumour cell growth, NCI panel, 48 h
[1] = system: MOLT-4 leukemia
[2] = system: NCI-H23 lung
[3] = system: RPMI-8226 leukemia
[4] = system: SK-MEL-2 melanoma
[5] = system: M14 melanoma
[6] = system: HT29 colon
[7] = system: CAKI-1 renal
[8] = system: HOP-92 NSCLC
[9] = system: SF-295 CNS
[10] = system: HL-60(TB) leukemia

Structure (SMILES)	TGI [1]	TGI [2]	TGI [3]	TGI [4]	TGI [5]	TGI [6]	TGI [7]	TGI [8]	TGI [9]	GI50 [1]	GI50 [2]	GI50 [3]	GI50 [4]	GI50 [5]	GI50 [6]	GI50 [9]	GI50 [7]	GI50 [8]	GI50 [10]	TGI [10]
COc1ccccc1/C=C(\NC(=O)c1ccccc1)c1nc2ccc(Cl)cc2[nH]1	54.9 µM	69.3 µM	38.5 µM	65.7 µM	> 100 µM	> 100 µM	74.4 µM	56.8 µM												
C=C1C(=O)O[C@@H]2C[C@@]3(C)[C@H](O)CCC(=C)[C@@H]3C[C@H]12		25.5 µM	13.4 µM	40 µM		12.1 µM	19.6 µM	18.2 µM	27.2 µM											
COc1ccc(/C=C/C(=O)c2c(-c3ccccc3)nn(C)c(=O)c2N2CCCCC2)cc1	23.1 µM	50.7 µM	31.8 µM		66 µM	35.9 µM	92.4 µM	16.8 µM	44.4 µM											
Cc1ccc(-n2nc(C(OC3OC(CO)C(O)C(O)C3O)C(O)CO)c3nc4cc(C)c(C)cc4nc32)cc1 (stereo not given)	> 100 µM	> 100 µM	> 100 µM		> 100 µM	> 100 µM			> 100 µM											
Oc1cn(-c2ccc(Cl)cc2)nc1-c1n[nH]c(=S)n1-c1ccc(F)cc1	> 100 µM	33 µM	> 100 µM	> 100 µM	45 µM	> 100 µM	> 100 µM	> 100 µM	66.9 µM	14.7 µM	15.7 µM	22.2 µM	34 µM	15.1 µM	43.2 µM	14.8 µM	40.5 µM	32.2 µM		
Nc1c(C(=O)Nc2ccccc2)sc2nc3c(cc12)C(=O)CCC3	> 100 µM	> 100 µM	> 100 µM		> 32.9 µM		> 100 µM		> 100 µM		0.833 µM	0.303 µM	0.35 µM	0.401 µM	0.354 µM	0.435 µM	0.485 µM		0.587 µM	> 100 µM
CCOC(=O)CNC(=O)c1[nH]cnc1/N=N/N(C)C	> 100 µM	> 100 µM	> 100 µM	> 100 µM	> 100 µM	> 100 µM	> 100 µM		> 100 µM											> 100 µM
CCN1C(=O)N(CC)C2C1NC(=S)N2/N=C/C=C/c1ccccc1 (stereo not given)	> 100 µM	> 100 µM	> 64.2 µM	> 100 µM	> 100 µM	> 31.8 µM	> 100 µM		> 100 µM	0.277 µM	0.546 µM	0.183 µM	0.661 µM	0.0881 µM	0.111 µM	0.0666 µM	0.0719 µM		0.0387 µM	0.29 µM
Cc1ccc(S(=O)(=O)Nc2ccccc2C(C)(C)C)cc1	62.8 µM	46.3 µM	54.3 µM	60.2 µM		31.9 µM	59.3 µM		32 µM											44.7 µM
CCOC(=O)c1cn(C)c2c(OC)c3ccccc3c(OC)c2c1=O	51.7 µM	37.8 µM	> 100 µM		45 µM	> 100 µM	76.8 µM		55.2 µM	18.9 µM	16.1 µM	23.8 µM		19.8 µM	64.3 µM	21.4 µM	29.7 µM		35.9 µM	> 100 µM
CCOC(=O)C1=C(C)N(NC(N)=O)C2(N)N(NC(N)=O)C(C)=C(C(=O)OCC)C12C#N (stereo not given)	> 100 µM		> 100 µM	> 100 µM	> 100 µM	> 100 µM	> 100 µM		> 100 µM											
CCOC(=O)C(Cc1ccc(N=NN(C)C)cc1)NC(=O)CC1c2ccccc2-c2ccccc21 (stereo not given)	> 100 µM	> 100 µM	> 100 µM	> 100 µM	> 100 µM	> 100 µM	> 100 µM		> 100 µM											> 100 µM
CCC(Oc1ccc(OC)c2c1C(=O)CCC2)C(=O)O (stereo not given)	> 100 µM	> 100 µM	> 100 µM	> 100 µM	> 100 µM	> 100 µM			> 100 µM											> 100 µM
CCOC(=O)C1C(c2ccc(Br)cc2)N(Cc2ccccc2)C(c2ccc(Br)cc2)C(C(=O)OC)S1(=O)=O (stereo not given)	> 100 µM	> 100 µM	> 100 µM	> 100 µM	> 100 µM	> 100 µM	> 100 µM		> 100 µM											> 100 µM
Cc1nc2ccncc2[nH]1	> 100 µM	> 100 µM		> 100 µM	> 100 µM	> 100 µM	> 100 µM		> 100 µM											> 100 µM
COc1ccc([C@@]23Oc4cc(OC)cc(OC)c4[C@]2(O)[C@H](O)[C@H](C(=O)N(C)C)[C@H]3c2ccccc2)cc1				0.0938 µM and 0.0112 µM and 0.0709 µM	0.014 µM		0.225 µM and 0.692 µM and 0.262 µM	0.0741 µM and 0.4 µM	0.0433 µM and 0.0867 µM		0.0152 µM	0.0164 µM	0.0225 µM			0.0124 µM	0.0218 µM	0.0304 µM		
